Experimental data taken from patent US8841301B2, “Selective NR2B antagonists” (Bristol-Myers Squibb Company, priority 2011, dated 2014).
pIC50: −log10 of the molar value. Read-outs that look alike come from different tables or passages of the source.

Molecular target: hNR2B (Homo sapiens, UniProt Q05586+Q13224)
Assay: Electrophysiology NMDA receptor experiments: two electrode voltage-clamp in Xenopus laevis oocytes expressing GluN1/GluN2 subunits
Type: cell-based
Conditions: oocytes voltage clamped at −40 mV, 50 μM glutamate, 30 μM glycine
Procedure: Electrophysiology NMDA Receptor Experiments.
Stage V and VI oocytes were surgically removed from the ovaries of large, well-fed and healthy Xenopus laevis anesthetized with 3-amino-benzoic acid ethyl ester (3 gm/l). Clusters of isolated oocytes were incubated with 292 U/ml Worthington (Freehold, N.J.) type IV collagenase or 1.3 mg/ml collagenase (Life Technologies, Gaithersburg, Md.; 17018-029) for 2 hr in Ca^2+-free solution comprised of (in mM) 115 NaCl, 2.5 KCl, and 10 HEPES, pH 7.5, with slow agitation to remove the follicular cell layer. Oocytes were then washed in the same solution supplemented with 1.8 mM CaCl2 and maintained in Barth's solution comprised of (in mM): 88 NaCl, 1 KCl, 2.4 NaHCO3, 10 HEPES, 0.82 MgSO4, 0.33 Ca(NO3)2, and 0.91 CaCl2 and supplemented with 100 μg/ml gentamycin, 10 μg/ml streptomycin, and 10 μg/ml penicillin. Oocytes were manually defolliculated and injected within 24 hrs of isolation with 3-5 ng of human GluN1 subunit cRNA and 7-10 ng of human GluN2 cRNA subunit in a 50 nl volume, and incubated in Barth's solution at 18° C. for 2-7 d. Glass injection pipettes had tip sizes ranging from 10-20 microns, and were backfilled with mineral oil. cRNA was synthesized from linearized template cDNA for rat glutamate receptor subunits according to manufacturer specifications (Ambion).
Two electrode voltage-clamp recordings were made 2-7 days post-injection. Oocytes were placed in a dual-track plexiglass recording chamber with a single perfusion line that splits in a Y-configuration to perfuse two oocytes. Dual recordings were made at room temperature (23° C.) using two Warner OC725B two-electrode voltage clamp amplifiers, arranged as recommended by the manufacturer. Glass microelectrodes (1-10 Megaohms) were filled with 300 mM KCl (voltage electrode) or 3 M KCl (current electrode). The bath clamps communicated across silver chloride wires placed into each side of the recording chamber, both of which were assumed to be at a reference potential of 0 mV. Oocytes were perfused with a solution comprised of (in mM) 90 NaCl, 1 KCl, 10 HEPES, […] and 0.5 BaCl2; pH 7.4, adjusted by addition of NaOH. Oocytes were recorded under voltage clamp at −40 mV. Final concentrations for glutamate and glycine were 50 μM and 30 μM, respectively. Concentration-response curves for experimental compounds were obtained by applying in successive fashion maximal glutamate/glycine, followed by glutamate/glycine plus variable concentrations of experimental compounds. Dose response curves consisting of four to eight concentrations were obtained in this manner. The baseline leak current at −40 mV was measured before and after recording, and the full recording linearly corrected for any change in leak current. The level of inhibition by applied experimental compounds was expressed as a percent of the initial glutamate response, and averaged together across oocytes from multiple experiments. Results were pooled, and the average percent responses at antagonist concentrations were fit by the equation, Percent Response=(100−minimum)/(1+([conc]/IC50)^nH)+minimum where minimum is the residual percent response in saturating concentration of the experimental compounds, IC50 is the concentration of antagonist that causes half of the achievable inhibition, and nH is a slope factor describing steepness of the inhibition curve. […]
For NMDA receptor subtype selectivity experiments human GluN1/GluN2A, GluN1/GluN2C, and GluN1/GluN2D cRNAs were expressed in Xenopus laevis as described above. Here, 10 μM concentrations of the antagonist was perfused with 50 μM glutamate and 30 μM glycine onto the oocyte for two min and the remaining current in the presence of the antagonist was compared to the maximal current obtained with 50 μM glutamate and 30 μM glycine alone (defined as 100%). When IC50 determinations were made against other NMDA receptor subtypes the protocol as described above was followed. […]

Chain of hNR2B (Q13224 27-1484, other chains not shown): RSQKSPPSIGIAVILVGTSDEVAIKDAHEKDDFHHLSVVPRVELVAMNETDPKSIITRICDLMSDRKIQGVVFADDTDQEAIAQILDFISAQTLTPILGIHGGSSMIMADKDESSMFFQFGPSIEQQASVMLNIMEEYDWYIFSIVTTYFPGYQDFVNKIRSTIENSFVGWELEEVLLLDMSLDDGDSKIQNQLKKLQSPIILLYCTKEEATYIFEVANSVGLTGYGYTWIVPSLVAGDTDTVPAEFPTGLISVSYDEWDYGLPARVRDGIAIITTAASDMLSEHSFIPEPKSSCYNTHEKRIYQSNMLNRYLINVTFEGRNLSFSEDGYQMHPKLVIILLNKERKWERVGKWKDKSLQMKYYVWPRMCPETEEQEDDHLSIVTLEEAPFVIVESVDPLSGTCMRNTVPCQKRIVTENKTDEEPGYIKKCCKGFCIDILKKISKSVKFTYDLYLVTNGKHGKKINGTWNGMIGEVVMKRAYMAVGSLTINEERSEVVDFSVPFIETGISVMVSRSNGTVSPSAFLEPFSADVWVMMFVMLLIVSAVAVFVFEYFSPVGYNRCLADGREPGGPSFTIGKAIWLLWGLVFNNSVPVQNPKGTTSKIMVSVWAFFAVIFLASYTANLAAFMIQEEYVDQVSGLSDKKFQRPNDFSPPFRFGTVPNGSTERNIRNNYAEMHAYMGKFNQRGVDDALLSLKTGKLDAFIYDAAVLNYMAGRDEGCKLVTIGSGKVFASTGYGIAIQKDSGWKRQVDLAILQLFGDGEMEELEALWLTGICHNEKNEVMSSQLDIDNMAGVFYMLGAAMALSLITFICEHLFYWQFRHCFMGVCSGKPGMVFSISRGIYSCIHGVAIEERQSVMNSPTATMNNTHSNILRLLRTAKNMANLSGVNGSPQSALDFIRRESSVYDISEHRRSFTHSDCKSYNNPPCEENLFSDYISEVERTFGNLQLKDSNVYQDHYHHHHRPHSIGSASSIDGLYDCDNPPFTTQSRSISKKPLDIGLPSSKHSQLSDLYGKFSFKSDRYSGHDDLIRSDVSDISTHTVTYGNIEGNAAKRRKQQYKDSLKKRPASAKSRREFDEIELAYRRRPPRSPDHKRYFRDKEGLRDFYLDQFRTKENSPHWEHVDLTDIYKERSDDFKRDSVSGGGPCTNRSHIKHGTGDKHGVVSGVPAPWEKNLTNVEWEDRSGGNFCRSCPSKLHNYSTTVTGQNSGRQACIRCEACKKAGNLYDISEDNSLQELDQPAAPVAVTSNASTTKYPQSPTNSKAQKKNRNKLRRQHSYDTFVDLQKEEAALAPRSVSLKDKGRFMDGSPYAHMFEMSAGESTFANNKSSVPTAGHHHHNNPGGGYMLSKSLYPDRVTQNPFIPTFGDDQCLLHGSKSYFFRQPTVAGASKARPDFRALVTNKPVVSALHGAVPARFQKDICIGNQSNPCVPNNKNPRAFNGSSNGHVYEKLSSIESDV

CN(C)c1nc(Nc2ccc(OC(F)F)cc2)ncc1COc1ccc2[nH]c(=O)ccc2c1 [Example 55]
pIC50 (read-out: Rating (hNR2B IC50)): > 6.70

O=c1ccc2cc(CCc3cnc(Nc4ccc(OC(F)F)cc4)nc3)cnc2[nH]1 [Example 155]
pIC50 (read-out: Rating (hNR2B IC50)): > 6.70

Cc1cc(Nc2ncc(COc3ccc(Nc4nccs4)cc3)cn2)ccc1OC(F)F [Example 87]
pIC50 (read-out: Rating (hNR2B IC50)): > 6.70

O=c1ccc2cc(OCc3cccc(Nc4ccc(Cl)cc4)n3)ccc2[nH]1 [Example 11]
pIC50 (read-out: Rating (hNR2B IC50)): > 6.70

FC(F)Oc1ccc(Nc2ncc(COc3ccc(Nc4nccs4)cc3)cn2)cc1Cl [Example 92]
pIC50 (read-out: Rating (hNR2B IC50)): > 6.70

Cc1ccc(Nc2ncc(CCc3ccc4c(c3)COC(=O)N4)cn2)cc1F [Example 149]
pIC50 (read-out: Rating (hNR2B IC50)): > 6.70

O=c1ccc2cc(OCc3ccc(Nc4ccc(OC(F)(F)F)cc4)nc3)ccc2[nH]1 [Example 9]
pIC50 (read-out: Rating (hNR2B IC50)): > 6.70

Cc1cc(Nc2ncc(COc3cc4ccc(=O)[nH]c4cc3F)cn2)ccc1OC(F)F [Example 78]
pIC50 (read-out: Rating (hNR2B IC50)): > 6.70

O=c1ccc2cc(OCc3ccc(NCc4ccc(F)c(F)c4)nc3)ccc2[nH]1 [Example 5]
pIC50 (read-out: Rating (hNR2B IC50)): 6.00 to 6.70

CS(=O)(=O)c1ccc(Nc2ncc(COc3ccc4[nH]c(=O)ccc4c3)cn2)cc1 [Example 40]
pIC50 (read-out: Rating (hNR2B IC50)): > 6.70

CC1(C)OC(=O)Nc2ccc(CCc3cnc(Nc4ccc(OC(F)F)c(Cl)c4)nc3)cc21 [Example 140]
pIC50 (read-out: Rating (hNR2B IC50)): 6.00 to 6.70

O=c1ccc2cc(OCc3cnc(NCc4ccc(Cl)c(Cl)c4)nc3)ccc2[nH]1 [Example 21]
pIC50 (read-out: Rating (hNR2B IC50)): < 5.00

O=c1ccc2cc(Oc3ccc(NCc4ccc(OC(F)(F)F)cc4)nn3)ccc2[nH]1 [Example 102, 6-(6-(4-(trifluoromethoxy)benzylamino)pyridazin-3-yloxy)quinolin-2(1H)-one]
pIC50 (read-out: hNR2B IC50): 5.34

Cc1ccc(Nc2ncc(COc3ccc4[nH]c(=O)ccc4c3)cn2)cc1C [Example 41]
pIC50 (read-out: Rating (hNR2B IC50)): > 6.70

FC(F)Oc1ccc(Nc2ncc(CCc3cccc4[nH]ncc34)cn2)cc1 [Example 111]
pIC50 (read-out: Rating (hNR2B IC50)): 5.00 to 6.00

Oc1ccc(OCc2cnc(Nc3ccc(Cl)cc3)nc2)cc1 [Example 12, 4-((2-(4-chlorophenylamino)pyrimidin-5-yl)methoxy)phenol]
pIC50 (read-out: hNR2B IC50): 6.40

Cc1cc(Nc2ncc(COc3ccc4[nH]ncc4c3)cn2)ccc1OC(F)F [Example 76]
pIC50 (read-out: Rating (hNR2B IC50)): > 6.70

Cc1cc(Nc2ncc(CCc3cnc4[nH]ncc4c3)cn2)ccc1OC(F)F [Example 153]
pIC50 (read-out: Rating (hNR2B IC50)): > 6.70

FC(F)Oc1ccc(Nc2ncc(COc3ccc4[nH]ncc4c3)cn2)cc1Cl [Example 75]
pIC50 (read-out: Rating (hNR2B IC50)): > 6.70

O=c1ccc2cc(CCc3cnc(Nc4ccc(OC(F)F)cc4)nc3)ccc2[nH]1 [Example 109]
pIC50 (read-out: Rating (hNR2B IC50)): > 6.70

Cc1cc(Nc2ncc(CCc3ccc4c(c3)C(C)(C)OC(=O)N4)cn2)ccc1OC(F)F [Example 147]
pIC50 (read-out: Rating (hNR2B IC50)): 5.00 to 6.00

O=c1ccc2cc(OCc3cnc(Nc4ccc(Cl)c(Cl)c4)nc3)ccc2[nH]1 [Example 20]
pIC50 (read-out: Rating (hNR2B IC50)): > 6.70

O=C1Cc2cc(OCc3cnc(Nc4ccc(OC(F)F)c(F)c4)nc3)ccc2N1 [Example 85]
pIC50 (read-out: Rating (hNR2B IC50)): > 6.70

CCc1ccc(Nc2ncc(CCc3cnc4[nH]ncc4c3)cn2)cc1F [Example 151]
pIC50 (read-out: Rating (hNR2B IC50)): 6.00 to 6.70

N#Cc1n[nH]c2ccc(CCc3cnc(Nc4ccc(OC(F)F)cc4)nc3)cc12 [Example 124]
pIC50 (read-out: Rating (hNR2B IC50)): < 5.00

CC(C)c1ccc(Nc2ncc(COc3ccc4[nH]c(=O)ccc4c3)cn2)cc1 [Example 44]
pIC50 (read-out: Rating (hNR2B IC50)): > 6.70

Fc1cc(Nc2ncc(COc3ccc(Nc4nccs4)cc3)cn2)ccc1OC(F)F [Example 91]
pIC50 (read-out: Rating (hNR2B IC50)): > 6.70
